Laboratory results taken from paper PMC9552247 (Addiction biology, 2022).

Target: human DAT (CHO-DAT) (Homo sapiens, UniProt Q01959)
Conditions: labelled compound, 60 nM, pH 7.4, 37°C

human DAT (CHO-DAT), sequence (Q01959 whole entry): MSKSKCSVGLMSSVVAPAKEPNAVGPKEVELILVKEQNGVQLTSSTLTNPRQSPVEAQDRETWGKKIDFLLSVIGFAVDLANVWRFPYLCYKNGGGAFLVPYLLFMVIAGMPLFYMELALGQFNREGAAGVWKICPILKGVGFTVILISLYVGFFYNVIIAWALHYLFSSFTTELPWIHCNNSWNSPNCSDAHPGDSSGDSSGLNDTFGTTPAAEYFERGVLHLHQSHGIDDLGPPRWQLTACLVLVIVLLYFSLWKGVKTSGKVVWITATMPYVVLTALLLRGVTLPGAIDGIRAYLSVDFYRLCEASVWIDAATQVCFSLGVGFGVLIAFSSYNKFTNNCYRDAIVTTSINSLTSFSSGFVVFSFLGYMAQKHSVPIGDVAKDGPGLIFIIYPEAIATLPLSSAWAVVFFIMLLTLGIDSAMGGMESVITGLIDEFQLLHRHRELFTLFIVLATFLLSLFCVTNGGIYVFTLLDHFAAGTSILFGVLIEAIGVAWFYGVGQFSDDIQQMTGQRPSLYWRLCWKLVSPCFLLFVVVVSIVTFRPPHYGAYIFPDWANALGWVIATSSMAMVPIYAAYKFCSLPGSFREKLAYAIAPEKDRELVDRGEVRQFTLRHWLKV

`NCCc1ccc(O)c(O)c1` [dopamine] was tested, and the “[3H]-dopamine uptake in CHO-DAT cells” value was “cells expressing the DA transporter (CHO-DAT) using tritiated dopamine”.
